pKi: −log10 of the molar value.

This assay concerns the target T1, cloned human 5-HT1A receptors (Homo sapiens, UniProt P08908).
T1 construct: expressed in transfected cells; host or cells: HEK293 cells, kept under G-418 selection; membranes used
T1 sequence (P08908 1-422): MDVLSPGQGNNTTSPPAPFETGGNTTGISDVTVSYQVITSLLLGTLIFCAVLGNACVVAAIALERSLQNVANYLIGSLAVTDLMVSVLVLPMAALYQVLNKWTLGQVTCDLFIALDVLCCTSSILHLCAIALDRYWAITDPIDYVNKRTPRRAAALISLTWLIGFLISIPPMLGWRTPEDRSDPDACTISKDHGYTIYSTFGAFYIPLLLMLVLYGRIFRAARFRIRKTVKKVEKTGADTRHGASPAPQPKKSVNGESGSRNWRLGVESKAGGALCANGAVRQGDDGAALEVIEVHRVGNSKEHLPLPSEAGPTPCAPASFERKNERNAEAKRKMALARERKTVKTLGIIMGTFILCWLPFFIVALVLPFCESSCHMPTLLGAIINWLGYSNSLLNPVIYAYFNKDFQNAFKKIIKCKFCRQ
The assay can be described thus: 5-HT1A binding assay using membranes from 5-HT1A receptor-expressing HEK293 cells (3H-8-OH-DPAT displacement). The note with it: 3H-8-OH-DPAT 0.15 nM, HEK293 cell membranes, 90 min at 22° C. As for the experimental part: The following test arrangement was used for determining the receptor binding affinity:
5-HT1A binding assay using membranes from 5-HT1A receptor-expressing HEK293 cells
Culturing 5-HT1A receptor-expressing HEK293 cells 5-HT1A-expressing HEK293 cells are cultured, at 37° C. and in a 5% CO2 atmosphere, in RPMI/Glutamax medium (RPMI 1640, 25 mM Hepes, 2 mM Glutamax, 10% FCS, 2 mM glutamine, penicillin/streptomycin (100 IU/ml each), geneticin G-418 sulfate, 400 mg/l, NaHCO3, 1.2 g/l) in culture flasks (T-175 triple flasks). After confluence has been reached, the medium is removed and the flasks are filled with 15 ml of sterile PBS (phosphate-buffered saline). The cells are detached by incubating them for 10 minutes (incubator, 37° C.) with a trypsin solution (0.05% trypsin, 0.0004% EDTA, 0.02% EGTA, 2.682 mM KCl, 1.47 mM KH2PO4, 6.46 mM NaHPO4, 136.89 mM NaCl). The detachment of the cells is promoted by knocking on the bottom of the flask. After having been transferred into 50 ml tubes (Greiner), the cells are centrifuged at 250×g at room temperature. The supernatant is discarded and the cells are resuspended in 10 ml of medium. The cells are aliquoted once again into culture flasks and cultured for a further 5 to 6 days until the membranes are prepared.
Preparing the Membranes from 5-HT1A Receptor-Expressing HEK293 Cells
The supernatants are removed from the cells and the culture flasks are filled with PBS. The cells are then incubated for 10 minutes with a trypsin solution (for composition see above). The detachment of the cells is promoted by knocking on the bottom of the flask. The cell suspension is removed and the remaining cells are likewise taken up in PBS by washing the culture flasks twice with PBS. The combined cell suspension is aliquoted into […] and centrifuged at 250×g and 4° C. for 10 minutes. The supernatants are discarded and the cells in the pellet are resuspended in PBS. 20 μl of the cell suspension are removed and the cell density is determined. The cells are centrifuged once again at 250×g (4° C.) for 10 minutes, after which the supernatant is discarded and the cells in the pellet are homogenized in 50 mM tris-HCl, pH 7.4 (1 ml/10^8 cells) using an Ultra-Turrax (30 sec).
The homogenate is aliquoted into cryotubes (1 ml/cryotube) and stored in liquid nitrogen until used in the binding assay.
The frozen membranes are thawed at 37° C., after which they are centrifuged at 48000*g (20 minutes) and then resuspended in binding buffer (50 mM Tris-HCl, pH 7.4, 5 mM CaCl2). An incubation assay mixture contains membrane material from […], 0.15 pmol (=0.15 nM) of 3H-8-OH-DPAT, and the substances to be tested, in a total of 1 ml of binding buffer. Nonspecific binding is determined in the presence of 10^−5 M 5-carboxamidotryptamine. Following a 90-minute incubation at 22° C., bound and free ligand are separated from each other by filtering through […] and subsequently washing with from 5 to 9 ml of ice-cold binding buffer. Before use, the GF/B filters are treated for at least 2 hours with 0.3% polyethylenimine. Following filtration, from 3 to 4 ml of Packard Ultima Gold XR are added to the filters and the radioactivity is determined by liquid scintillation counting in a Packard Tricarb.
Evaluating the Data from the 5-HT1A Binding Assay
The displacement curves are analyzed by nonlinear regression using a modified version of the “Ligand” program of Munson & Rodbard (Anal. Biochem., 107, 220 (1980)). The value of the theoretical nonspecific binding is assessed to be the theoretical binding of radioligand at infinitely high ligand concentration. In this connection, the measured values for the nonspecific binding are treated as data points of the displacement curve which correspond to experimental points at an infinitely high ligand concentration. […]
For the compound `O=S1(=O)c2ccccc2CN1CCN1CCN(c2nccc3ccccc23)CC1` [Example 3, 2-[2-(4-(1-Isoquinolinyl)-1-piperazinyl)-ethyl]-2,3-dihydro-1,2-benzisothiazole 1,1-dioxide], the pKi (as a rule, the Ki on a negative log10 scale, so that one unit is a factor of ten) was 8.80.

As to `O=S1(=O)c2ccccc2CN1CCN1CCN(c2cccc3ccccc23)CC1` [Example 8, 2-[2-(4-(1-Naphthyl)-1-piperazinyl)ethyl]-2,3-dihydro-1,2-benzisothiazole 1,1-dioxide], the pKi was 10.00.

Turning to `Cc1cccc(N2CCN(CCN3Cc4ccccc4C3=O)CC2)n1` [Example 4, 2-[2-(4-(6-Methyl-2-pyridinyl)-1-piperazinyl)-ethyl]-1-isoindolinone], the pKi is 8.59.

As to `O=C1c2ccccc2CCN1CCN1CCN(c2nccc3ccccc23)CC1` [Example 1, 2-[2-(4-(1-Isoquinolinyl)-1-piperazinyl)ethyl]-3,4-dihydro-1(2H)-isoquinolinone], the pKi is 9.22.

The compound `O=c1c2ccccc2ccn1CCN1CCN(c2nccc3ccccc23)CC1` [Example 2, 2-[2-(4-(1-Isoquinolinyl)-1-piperazinyl)-ethyl]-1(2H)-isoquinolinone] had a negative logarithm of the Ki (pKi) of 9.22.

In the case of `O=C1Cc2ccccc2N1CCN1CCN(c2cccc(C(F)(F)F)c2)CC1` [Example 5, 1-[2-(4-(3-Trifluoromethylphenyl)-1-piperazinyl)ethyl]-1,3-dihydro-2H-indol-2-one], the pKi was 8.54.

For `O=S1(=O)c2ccccc2CN1CCN1CCN(c2cccc(C(F)(F)F)c2)CC1` [Example 13, 2-[2-(4-(3-Trifluoromethylphenyl)-1-piperazinyl)ethyl]-2,3-dihydro-1,2-benzisothiazole 1,1-dioxide], the pKi was 9.00.

Regarding `O=c1ccc2ccccc2n1CCN1CCN(c2nccc3ccccc23)CC1` [Example 7, 1-[2-(4-(1-Isoquinolinyl)-1-piperazinyl)-ethyl]-2(1H)-quinolinone], the pKi was 8.62.

`O=C1c2ccccc2CN1CCN1CCN(c2nccc3ccccc23)CC1` [Example 22, 2-[2-(4-(1-Isoquinolinyl)-1-piperazinyl)ethyl]-1-isoindolinone] showed a pKi of 8.27.

With `O=C1CCc2ccccc2N1CCN1CCN(c2nccc3ccccc23)CC1` [Example 6, 1-[2-(4-(1-Isoquinolinyl)-1-piperazinyl)-ethyl]-3,4-dihydro-2(1H)-quinolinone], the negative logarithm of the Ki (pKi) was 8.39.

Take `Cc1cccc(N2CCN(CCN3Cc4ccccc4S3(=O)=O)CC2)n1` [Example 10, 2-[2-(4-(6-Methyl-2-pyridinyl)-1-piperazinyl)ethyl]-2,3-dihydro-1,2-benzisothiazole 1,1-dioxide]: the negative logarithm of the Ki (pKi) was 9.30.

Take `O=C1Cc2ccccc2N1CCN1CCN(c2nccc3ccccc23)CC1` [Example 19, 1-[2-(4-(1-Isoquinolinyl)-1-piperazinyl)ethyl]-1,3-dihydro-2H-indol-2-one]: the pKi was 9.15.
